Assay results reported in US4665088A, “(E-Z)-4,5,9-trithiadodeca-1,6,11-triene 9-oxides” (The Research Foundation of State University of New York, priority 1984, dated 1987).
Read-outs that look alike come from different tables or passages of the source.

Key:
Type in all cases: cell-based
[1] = tested on: collagen-induced platelet aggregation (platelet rich, citrated, human blood plasma); assay: Inhibition of collagen-induced aggregation of platelets in platelet rich, citrated human blood plasma
Text: (§1) Though the compounds of this invention have multiple uses such as for example as bacteriocides and fungicides, a particularly important utility is as an antithrombotic agent. Various chemicals are known to cause blood platelets to aggregate which in turn can result in blood clots in the blood circulatory system of living systems. Certain other compounds are known to prevent blood platelet aggregation and accordingly are known herein as antithrombotic agents, while other compounds prevent clotting of aggregated platelets and are called anticoagulants. Both are used in the treatment of phlebitis, stroke, coronary thrombosis and arteriosclerosis. In a typical test to determine antithrombotic activity, the suspected antithrombotic chemical is mixed with a suspension of blood platelets, incubated for a few minutes, and then the suspension is treated with a known amount of a known agonist (agent inducing aggregation). The effectiveness of the suspected antithrombotic is compared to a control which has been treated with the agonist but which has not been treated with the antithrombotic and a quantitative measure of effectiveness is determined by ascertaining the concentration of suspected antithrombotic necessary to reduce by 50% the extent of platelet aggregation compared to the control. This measurement is termed the ID50 of the antithrombotic. Typical agonists include collagen and ADP (adenosine diphosphate).
Platelet rich, citrated, human blood plasma (250,000 platelets/μL) was prepared and divided into 0.45 ml. aliquots for use in determining ID50 levels of the subject compounds. The aliquots were treated with various quantities of (E)-ajoene, (Z)-ajoene, mixed (E,Z)-ajoene and mixed (E,Z)-ajoene together with prostacyclin and indomethacin. A control was maintained free of antithrombotic. The thus treated aliquots were pre-incubated by maintaining in an aggregometer cuvette for 2 minutes at 37° C. with stirring (950 RPM). Each aliquot was then further treated with an appropriate amount of ADP (10 μmole) or collagen (1 μg/ml or 2 μg/ml). Aggregation in each aliquot was monitored for a period of 3-5 minutes and percentage aggregation was quantitated by a dual channel aggregometer which ascertained percent aggregation by comparison against a control of light transmittance through the sample.

[2] = tested on: ADP-induced platelet aggregation (platelet rich, citrated, human blood plasma); assay: Inhibition of ADP-induced aggregation of platelets in platelet rich, citrated human blood plasma; conditions: ADP (10 μmole), read-out: ID50 (the source's name)
Text: as §1, with “In a typical test to determine antithrombotic activity, the suspected antithrombotic chemical is mixed with a suspension of blood platelets, incubated for a few minutes, and then the suspension is treated with a known amount of a known agonist (agent inducing aggregation).” left out, “This measurement is termed the ID50 of the antithrombotic. Typical agonists include collagen and ADP (adenosine diphosphate).” left out
Platelet rich, citrated, human blood plasma (250,000 platelets/μL) was prepared and divided into 0.45 ml. aliquots for use in determining ID50 levels of the subject compounds. The aliquots were treated with various quantities of (E)-ajoene, (Z)-ajoene, mixed (E,Z)-ajoene and mixed (E,Z)-ajoene together with prostacyclin and indomethacin. […]

[3] = tested on: platelet aggregation; assay: Antithrombotic/anticoagulant activity (general statement); conditions: for antithrombotic activity when combined with the compounds of the invention: combined with the compounds of the instant claimed invention
Text: as §1

[4] = COLLAGEN (2 μg/ml), read-out: ID50 (the source's name)
[5] = COLLAGEN (1 μg/ml), (E,Z)-ajoene 70:30 together with Prostacyclin (aliquot 5), read-out: ID50 (the source's name)
[6] = COLLAGEN (1 μg/ml), antithrombotic alone, read-out: ID50 (the source's name)

Compound	IC50 [1, 4] [µM]	IC50 [2] [µM]	IC50 [1, 5] [µM]	IC50 [1, 6] [µM]	antithrombotic activity when combined with the compounds of the invention [3]	other results
C=CCSS/C=C/C[S+]([O-])CC=C (stereo not shown) [(E)-ajoene]	243 ± 90	213	–	–	–	–
COc1ccc2c(c1)c(CC(=O)O)c(C)n2C(=O)c1ccc(Cl)cc1 [Indomethacin, reference compound]	–	–	–	–	particularly enhanced antithrombotic activity	IC50 ([1]; read-out: ID50): 0.2 µM
CCCCC[C@H](O)/C=C/[C@@H]1[C@H]2C/C(=C/CCCC(=O)O)O[C@H]2C[C@H]1O [Prostacyclin, reference compound]	–	–	0.001	0.001	particularly enhanced antithrombotic activity	–

The next lines start with results.

IC50 [1, 4] [µM]	IC50 [2] [µM]	IC50 [1, 5] [µM]	IC50 [1, 6] [µM]	Compound	antithrombotic activity when combined with the compounds of the invention [3]	other results
–	–	2.3	92	C=CCSSC=CC[S+]([O-])CC=C (stereo not shown) [(E,Z)-ajoene, (E,Z)-4,5,9-trithiadodeca-1,6,11-triene 9-oxide]	–	antithrombotic activity [3]: significant antithrombotic activity; IC50 ([1]; COLLAGEN (1 μg/ml), (E,Z)-ajoene 70:30 together with Indomethacin (aliquot 7), read-out: ID50 (the source's name)): 4.5 µM
196 ± 64	188 ± 38	–	–	C=CCSS/C=C\C[S+]([O-])CC=C (stereo not shown) [(Z)-ajoene]	–	–
